Results on 21 molecules are retold here after PMC8790780 (Chemistry (Weinheim an der Bergstrasse, Germany), 2021).

The structures appear in SMILES notation. A value given as a limit tells only on which side of the number the result lay.

One assay deals with Hsp90α (Homo sapiens, UniProt P07900). Description: Fluorescence polarization. In kind it is binding. Conditions: for binding affinity for Hsp90α (in words): FP assay, SAR discussion.
The next assay deals with NCI-H1299 cells. Briefly: Cell viability assay. In kind it is cell-based. To be noted: Homo sapiens, NCI-H1299, 72 h, read-out: NCI—H1299 [IC50 in μM].
Another assay deals with HT29 cells. Description: Cell viability assay. The assay is classed as cell-based. To be noted: Homo sapiens, HT-29, 72 h, read-out: HT29 [IC50 in μM].
A further assay addresses Hsp90β (Homo sapiens, UniProt P08238). Briefly: Fluorescence polarization. The assay is classed as binding. To be noted: for Selectivity: Hsp90β versus Hsp90α, from FP IC50 values; for binding affinity for Hsp90β (in words): FP assay, SAR discussion. On the technique in general: Polarisation of emitted light reports the rotation of a fluorescent probe.

Sequence of Hsp90β (P08238 whole entry): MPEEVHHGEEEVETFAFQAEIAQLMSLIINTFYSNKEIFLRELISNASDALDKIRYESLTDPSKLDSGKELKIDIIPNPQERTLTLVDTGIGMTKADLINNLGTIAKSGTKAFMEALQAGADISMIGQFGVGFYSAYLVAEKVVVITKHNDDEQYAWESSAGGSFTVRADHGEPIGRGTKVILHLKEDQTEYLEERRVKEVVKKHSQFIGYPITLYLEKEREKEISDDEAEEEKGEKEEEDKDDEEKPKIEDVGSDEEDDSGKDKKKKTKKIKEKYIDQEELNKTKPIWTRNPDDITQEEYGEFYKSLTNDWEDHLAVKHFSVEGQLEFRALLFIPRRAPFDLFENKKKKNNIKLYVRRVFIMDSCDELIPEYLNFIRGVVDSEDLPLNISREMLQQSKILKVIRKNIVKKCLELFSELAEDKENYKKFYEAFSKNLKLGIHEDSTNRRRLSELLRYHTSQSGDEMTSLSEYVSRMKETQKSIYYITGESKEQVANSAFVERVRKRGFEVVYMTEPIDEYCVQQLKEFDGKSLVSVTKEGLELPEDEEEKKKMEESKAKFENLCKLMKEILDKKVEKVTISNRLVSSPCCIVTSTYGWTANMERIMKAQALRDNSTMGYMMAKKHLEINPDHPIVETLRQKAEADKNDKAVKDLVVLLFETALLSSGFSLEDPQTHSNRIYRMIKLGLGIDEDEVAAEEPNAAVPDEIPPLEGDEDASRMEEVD

For orientation: IC50 means the concentration needed to halve the response being measured. With `CC(C)c1cc(C(=O)N2Cc3ccccc3C2)c(O)c2cc[nH]c12` [Compound 18, (4-hydroxy-7-isopropyl-1H-indol-5-yl)(isoindolin-2-yl)methanone], the concentration for half-maximal inhibition (IC50) on Hsp90α is > 100 µM; in the assay with NCI-H1299 cells it was > 100 µM; in the assay on HT29 cells, 62 ± 1.42 µM; on Hsp90β it was > 100 µM.

As to `CC(C)c1cc(C(=O)N2Cc3ccccc3C2)c(O)c2cn[nH]c12` [Compound 19, (4-Hydroxy-7-isopropyl-1H-indazol-5-yl)(isoindolin-2-yl) methanone], the half-maximal inhibitory concentration (IC50) on Hsp90α, in the assay on NCI-H1299 cells, with HT29 cells and on Hsp90β was > 100 µM in each case.

In the case of `CC(C)c1cc(C(=O)N2Cc3ccccc3C2)c(O)c2[nH]nnc12` [Compound 20, (7-Hydroxy-4-isopropyl-1H-benzo[d][1,2,3]triazol-6-yl)(isoindolin-2-yl)methanone], the IC50 against Hsp90α was > 100 µM; in the assay on NCI-H1299 cells, 75 ± 21.4 µM; in the assay on HT29 cells, > 100 µM; on Hsp90β it was > 100 µM.

Regarding `CC(C)c1cc(C(=O)N2Cc3ccccc3C2)c(O)c2nc[nH]c12` [Compound 21, (4-Hydroxy-7-isopropyl-1H-benzo[d]imidazol-5-yl)(isoindolin-2-yl) methanone], the concentration for half-maximal inhibition (IC50) against Hsp90α was found to be 2.22 ± 0.19 µM; with NCI-H1299 cells it was 60 ± 10.5 µM; with HT29 cells, 93.7 ± 2.67 µM; against Hsp90β, 0.45 ± 0.15 µM. This molecule also registered a Selectivity on Hsp90β of 4.9.

As for `CC(C)c1cc(C(=O)N2Cc3ccccc3C2)c(O)c2c1CCC2=O` [Compound 29a, 7-hydroxy-6-(isoindoline-2-carbonyl)-4-isopropyl-2,3-dihydro-1H-inden-1-one], the IC50 at Hsp90α was > 100 µM; in the assay on NCI-H1299 cells it was 67.6 ± 4.13 µM; in the assay on HT29 cells, 63.5 ± 1.69 µM; against Hsp90β it was > 100 µM. Also, the “binding affinity for Hsp90α (in words)” value on Hsp90α is recorded as “did not exhibit affinity”. The “binding affinity for Hsp90β (in words)” value on Hsp90β is recorded as “did not exhibit affinity”.

On to `CC(C)c1cc(C(=O)N2Cc3ccccc3C2)c(O)c2c1C(=O)CC2` [Compound 29b, 4-Hydroxy-5-(isoindoline-2-carbonyl)-7-isopropyl-2,3-dihydro-1H-inden-1-one], for which the IC50 against Hsp90α came to 0.79 ± 0.14 µM; in the assay on NCI-H1299 cells, 10 ± 3.28 µM; in the assay on HT29 cells, 21.7 ± 2.6 µM; at Hsp90β it was 0.15 ± 0.04 µM. The “binding affinity for Hsp90α (in words)” value at Hsp90α is given as “strong affinity”. Further, the “binding affinity for Hsp90β (in words)” value on Hsp90β is on record as “strong affinity”.

For `CC(C)c1cc(C(=O)N2Cc3ccccc3C2)c(O)c2c1CCC2` [Compound 31, (4-hydroxy-7-isopropyl-2,3-dihydro-1H-inden-5-yl)(isoindolin-2-yl)methanone], the IC50 at Hsp90α was > 100 µM; in the assay on NCI-H1299 cells, 58.1 ± 0.34 µM; with HT29 cells, 59.33 ± 0.18 µM; against Hsp90β, 5.23 ± 0.13 µM. Also, the “binding affinity for Hsp90β (in words)” value on Hsp90β is listed as “poor binding affinity”. Besides, the Selectivity at Hsp90β is > 19.1.

With `CC(C)c1cc(C(=O)N2Cc3ccccc3C2)c(O)c2c1CC=C2` [Compound 32a, (4-Hydroxy-7-isopropyl-1H-inden-5-yl)(isoindolin-2-yl)methanone], the half-inhibitory concentration (IC50) is > 100 µM against Hsp90α, 46.1 ± 1.11 µM in the assay on NCI-H1299 cells, 51.8 ± 2.18 µM in the assay with HT29 cells and 8.29 ± 0.17 µM at Hsp90β. For the same molecule, the Selectivity at Hsp90β is reported as >12.

For the molecule `CC(C)c1cc(C(=O)N2Cc3ccccc3C2)c(O)c2c1C=CC2` [Compound 32b, (7-hydroxy-4-isopropyl-1H-inden-6-yl)(isoindolin-2-yl)methanone], the 50% inhibitory concentration (IC50) is > 100 µM against Hsp90α, 41.4 ± 1.2 µM with NCI-H1299 cells, 47.4 ± 2.94 µM in the assay with HT29 cells and 1.86 ± 0.11 µM against Hsp90β. Besides, the Selectivity at Hsp90β is on record as > 53.

As for `CC1Cc2c(O)c(C(=O)N3Cc4ccccc4C3)cc(C(C)C)c2C1=O` (stereo not drawn) [Compound 40, 4-Hydroxy-5-(isoindoline-2-carbonyl)-7-isopropyl-2-methyl-2,3-di-hydro-1H-inden-1-one], the IC50 against Hsp90α was > 100 µM; with NCI-H1299 cells, 59 ± 1.78 µM; in the assay on HT29 cells, 60.2 ± 0.63 µM; against Hsp90β it was 8.83 ± 1.48 µM. In addition, the Selectivity on Hsp90β was >11.

For `CC(C)c1cc(C(=O)N2Cc3ccccc3C2)c(O)c2c1C(=O)C(C)(C)C2` [Compound 41, 4-hydroxy-5-(isoindoline-2-carbonyl)-7-isopropyl-2,2-dimethyl-2,3-dihydro-1H-inden-1-one], the IC50 on Hsp90α is > 100 µM; with NCI-H1299 cells, 51.31 ± 0.15 µM; in the assay with HT29 cells it was 54.3 ± 1.32 µM; on Hsp90β, > 100 µM. Besides, on Hsp90β, the “binding affinity for Hsp90β (in words)” value was “not tolerated”.

In the case of `CC(C)c1cc(C(=O)N2Cc3ccccc3C2)c(O)c2c1C(=O)C(F)C2` (stereo not drawn) [Compound 42, 2-fluoro-4-hydroxy-5-(isoindoline-2-carbonyl)-7-isopropyl-2,3-di-hydro-1H-inden-1-one], the IC50 came out at 2.42 ± 0.07 µM on Hsp90α, 20.6 ± 0.28 µM in the assay with NCI-H1299 cells, 58.3 ± 1.51 µM in the assay on HT29 cells and 0.34 ± 0.01 µM at Hsp90β. On Hsp90β, this molecule had a Selectivity of 7.1.

Take `CC(C)c1cc(C(=O)N2Cc3ccccc3C2)c(O)c2c1C(=O)C(F)(F)C2` [Compound 43, 2,2-difluoro-4-hydroxy-5-(isoindoline-2-carbonyl)-7-isopropyl-2,3-dihydro-1H-inden-1-one]: the half-maximal inhibitory concentration (IC50) at Hsp90α was > 100 µM; with NCI-H1299 cells it was > 100 µM; in the assay on HT29 cells, > 100 µM; on Hsp90β, 18.2 ± 1.3 µM. The “binding affinity for Hsp90β (in words)” value at Hsp90β is recorded as “poor affinity”. Also, at Hsp90β, the Selectivity is >5.

For `CC(C)c1cc(C(=O)N2Cc3ccccc3C2)c(O)c2c1C(=O)C(C(F)(F)F)C2` (stereo not drawn) [Compound 44, 4-Hydroxy-5-(isoindoline-2-carbonyl)-7-isopropyl-2-(trifluoromethyl)-2,3-dihydro-1H-inden-1-one], the IC50 is > 100 µM on Hsp90α, 57.8 ± 8.01 µM with NCI-H1299 cells, 75.29 ± 0.66 µM in the assay with HT29 cells and 19.6 ± 2.2 µM against Hsp90β. Moreover, on Hsp90β, the Selectivity was >5.

With `CC(C)c1cc(C(=O)N2Cc3ccccc3C2)c(O)c2c1C(=C(F)F)CC2` [Compound 45, (1-(difluoromethylene)-4-hydroxy-7-isopropyl-2,3-dihydro-1H-inden-5-yl)(isoindolin-2-yl)methanone], at Hsp90α, the IC50 was > 100 µM and the “binding affinity for Hsp90α (in words)” value is “did not display good affinity”. Further, on Hsp90β, the IC50 is > 100 µM and the “binding affinity for Hsp90β (in words)” value is “did not display good affinity”.

For `C=C1Cc2c(O)c(C(=O)N3Cc4ccccc4C3)cc(C(C)C)c2C1=O` [Compound 46, 4-hydroxy-5-(isoindoline-2-carbonyl)-7-isopropyl-2-methylene-2,3-dihydro-1H-inden-1-one], the IC50 is > 100 µM at Hsp90α, 68.2 ± 1.2 µM in the assay on NCI-H1299 cells, 66.5 ± 1.35 µM in the assay on HT29 cells and > 100 µM on Hsp90β. In addition, the “binding affinity for Hsp90α (in words)” value on Hsp90α was “did not display good affinity”. Further, the “binding affinity for Hsp90β (in words)” value on Hsp90β is reported as “did not display good affinity”.

Turning to `CC(C)c1cc(C(=O)N2Cc3ccccc3C2)c(O)c2c1C(=O)C=C2` [Compound 50, 4-hydroxy-5-(isoindoline-2-carbonyl)-7-isopropyl-1H-inden-1-one], the IC50 was 43.1 ± 11.5 µM on Hsp90α, 1.53 ± 0.16 µM in the assay on NCI-H1299 cells, 2.33 ± 0.48 µM in the assay on HT29 cells and 6.75 ± 0.01 µM at Hsp90β.

Take `CC(C)c1cc(C(=O)N2Cc3ccccc3C2)c(O)c2c1C(=NO)CC2` [Compound 51, (4-hydroxy-1-(hydroxyimino)-7-isopropyl-2,3-dihydro-1H-inden-5-yl)(isoindolin-2-yl)methanone]: the IC50 against Hsp90α was > 100 µM; in the assay on NCI-H1299 cells, 33.7 ± 1.78 µM; in the assay with HT29 cells it was 51.2 ± 2.23 µM; against Hsp90β, > 100 µM.

Regarding `CON=C1CCc2c(O)c(C(=O)N3Cc4ccccc4C3)cc(C(C)C)c21` [Compound 52, (4-hydroxy-7-isopropyl-1-(methoxyimino)-2,3-dihydro-1H-inden-5-yl)(isoindolin-2-yl)methanone], the IC50 was > 100 µM against Hsp90α, 86 ± 7.7 µM with NCI-H1299 cells, 51.2 ± 2.23 µM in the assay with HT29 cells and > 100 µM at Hsp90β.

Regarding `CC(C)c1cc(C(=O)N2Cc3ccccc3C2)c(O)c2c1CCCC2=O` [Compound 59a, 8-hydroxy-7-(isoindoline-2-carbonyl)-5-isopropyl-3,4-dihydronaphthalen-1(2H)-one], the IC50 is > 100 µM at Hsp90α, 83.3 ± 1.31 µM in the assay with NCI-H1299 cells, 51.2 ± 2.23 µM in the assay on HT29 cells and > 100 µM at Hsp90β.

As to `CC(C)c1cc(C(=O)N2Cc3ccccc3C2)c(O)c2c1C(=O)CCC2` [Compound 59b, 5-hydroxy-6-(isoindoline-2-carbonyl)-8-isopropyl-3,4-dihydronaphthalen-1(2H)-one], the IC50 on Hsp90α and against Hsp90β was > 100 µM each time.
